In ChEMBL document CHEMBL1201862, “PubChem BioAssay data set” (2004):
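Growth conditions: 96-well plates. Treatment: test compound, 48 hours, 5 concentrations. Analysis: linear interpolation between bracketing concentrations; unreached endpoints set to highest concentration. Here, GI50 denotes the concentration required for 50% inhibition of growth.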 Activity calls are given as the source filed them. No stated cut-off is given here; in the data, active = GI50 up to about 1.1 µM and inactive = higher.

Key:
Assay in all cases: DTP human tumour cell line panel, 48 h
[1] = system: ACHN
[2] = system: CAKI-1
[3] = system: CCRF-CEM
[4] = system: COLO 205
[5] = system: DU-145
[6] = system: HCC 2998
[7] = system: HCT-116
[8] = system: HOP-62
[9] = system: IGROV-1
[10] = system: M14
[11] = system: MDA-N
[12] = system: NCI/ADR-RES
[13] = system: OVCAR-3
[14] = system: PC-3
[15] = system: SF-268
[16] = system: SK-MEL-2
[17] = system: SNB-75
[18] = system: T47D
[19] = system: U-251
[20] = system: UO-31

Row | Compound | GI50 [1] | GI50 [2] | GI50 [3] | GI50 [4] | GI50 [5] | GI50 [6] | GI50 [7] | GI50 [8] | GI50 [9] | GI50 [10] | GI50 [11] | GI50 [12] | GI50 [13] | GI50 [14] | GI50 [15] | GI50 [16] | GI50 [17] | GI50 [18] | GI50 [19] | GI50 [20]
1 | Cc1cccc(CC(Cc2ccc(C)cc2C(=O)O)C(=O)O)c1 (stereo not given) | > 100 µM (inactive) | > 100 µM (inactive) | > 100 µM (inactive) | > 100 µM (inactive) | > 100 µM (inactive) | > 100 µM (inactive) | > 100 µM (inactive) | > 100 µM (inactive) | > 100 µM (inactive) | > 100 µM (inactive) | > 100 µM (inactive) | > 100 µM (inactive) | > 100 µM (inactive) | > 100 µM (inactive) | > 100 µM (inactive) | > 100 µM (inactive) | > 100 µM (inactive) | > 100 µM (inactive) | > 100 µM (inactive) | > 100 µM (inactive)
2 | COc1ccc(-c2c(C(C)=O)c(C)n(C3OC(COC(C)=O)C(OC(C)=O)C(OC(C)=O)C3OC(C)=O)c(=S)c2C#N)cc1 (stereo not given) | > 100 µM (inactive) | 28.9 µM (inactive) | 42.3 µM (inactive) | > 100 µM (inactive) | > 100 µM (inactive) | > 100 µM (inactive) | 72.1 µM (inactive) | > 100 µM (inactive) | > 100 µM (inactive) | > 100 µM (inactive) | > 100 µM (inactive) | 71 µM (inactive) | > 100 µM (inactive) | 45.2 µM (inactive) | > 100 µM (inactive) | 29.9 µM (inactive) | 75.5 µM (inactive) | > 100 µM (inactive) | > 100 µM (inactive) | 2.15 µM (inactive)
3 | Cc1cc(C)nc(NS(=O)(=O)c2ccc(NNC(=O)c3cccc4c(NNc5ccc(S(=O)(=O)Nc6nc(C)cc(C)n6)cc5)c5ccccc5nc34)cc2)n1 | 17.3 µM (inactive) | 18.8 µM (inactive) | 18.5 µM (inactive) | 20.9 µM (inactive) | 19.4 µM (inactive) | 21.4 µM (inactive) | 22.9 µM (inactive) | 27.8 µM (inactive) | 20 µM (inactive) | 17.5 µM (inactive) | 20.9 µM (inactive) | 68.5 µM (inactive) | 28.3 µM (inactive) | 24.3 µM (inactive) | 20.7 µM (inactive) | 23.6 µM (inactive) | 17.7 µM (inactive) | 19.5 µM (inactive) | 22.9 µM (inactive) | 18.9 µM (inactive)
4 | CN(C)CC1=Nc2cccc3cccc(c23)N1 | 14.9 µM (inactive) | 21.5 µM (inactive) | 0.235 µM (active) | 2.95 µM (inactive) | 17.1 µM (inactive) | 17.2 µM (inactive) | 8.15 µM (inactive) | > 100 µM (inactive) | 18.5 µM (inactive) | 19.5 µM (inactive) | 18.4 µM (inactive) | 33.7 µM (inactive) | 16.4 µM (inactive) | 17 µM (inactive) | 18.9 µM (inactive) | 17.4 µM (inactive) | 16.7 µM (inactive) | 6.11 µM (inactive) | 16.8 µM (inactive) | 9.16 µM (inactive)
5 | COC(=O)/N=[N+](\[O-])C(c1ccc(OC)cc1)C1CCCCC1 (stereo not given) | 2.56 µM (inactive) | 2.12 µM (inactive) | 2.2 µM (inactive) | 0.611 µM (active) | 1.86 µM (inactive) | 2.12 µM (inactive) | 0.652 µM (active) | 4.84 µM (inactive) | 4.18 µM (inactive) | 2.99 µM (inactive) | 2.03 µM (inactive) | 2.11 µM (inactive) | 6.15 µM (inactive) | 1.69 µM (inactive) | 4.23 µM (inactive) | 13.3 µM (inactive) | 5.22 µM (inactive) | 0.303 µM (active) | 1.03 µM (active) | 5.82 µM (inactive)
6 | CC(C)=CCC(O)[C@](C)(O)[C@H]1[C@H](O)C[C@@]2(C)[C@@H]3CCc4cc(O)c(OC5OC(CO)C(O)C(O)C5O)cc4C3(C)C(=O)C[C@]12C (stereo not given in full) | > 100 µM (inactive) | > 100 µM (inactive) | > 100 µM (inactive) | > 100 µM (inactive) | > 100 µM (inactive) | > 100 µM (inactive) | > 100 µM (inactive) | > 100 µM (inactive) | 89.3 µM (inactive) | > 100 µM (inactive) | > 100 µM (inactive) | > 100 µM (inactive) | > 100 µM (inactive) | > 100 µM (inactive) | > 100 µM (inactive) | > 100 µM (inactive) | > 100 µM (inactive) | > 100 µM (inactive) | > 100 µM (inactive) | > 100 µM (inactive)
7 | COc1ccc2nc3ccccc3c(NCCCCCN(CCCl)CCCl)c2c1 | 0.0266 µM (active) | 0.0542 µM (active) | 0.0151 µM (active) | < 0.0301 µM (active) | 0.192 µM (active) | 0.108 µM (active) | 0.0295 µM (active) | 0.0776 µM (active) | 0.177 µM (active) | 0.0581 µM (active) | 0.121 µM (active) | 0.0399 µM (active) | 0.0675 µM (active) | 0.0469 µM (active) | 0.0383 µM (active) | 0.194 µM (active) | 0.0462 µM (active) | < 0.01 µM (active) | 0.0318 µM (active) | 0.0705 µM (active)
